# In PMC8067754, “Active Transport of Hepatotoxic Pyrrolizidine Alkaloids in HepaRG Cells” (International Journal of Molecular Sciences, 2021):
# “And” between values parts separate entries of the source, which are not always exact repeats. Equal entries are not always repeated.
# Assays:
# SLC22A1 = target: T1, SLC22A1 (Homo sapiens, UniProt O15245); assay: ASP+ (SLC22A1 substrate) uptake measurement in HepaRG cells; format: cell-based
# T1 construct: For measuring the uptake of ASP^+ in HepaRG cells incubated with PAs; endogenous in cells; host or cells: differentiated HepaRG cells (human hepatoma)
# T1 sequence (O15245 1-554): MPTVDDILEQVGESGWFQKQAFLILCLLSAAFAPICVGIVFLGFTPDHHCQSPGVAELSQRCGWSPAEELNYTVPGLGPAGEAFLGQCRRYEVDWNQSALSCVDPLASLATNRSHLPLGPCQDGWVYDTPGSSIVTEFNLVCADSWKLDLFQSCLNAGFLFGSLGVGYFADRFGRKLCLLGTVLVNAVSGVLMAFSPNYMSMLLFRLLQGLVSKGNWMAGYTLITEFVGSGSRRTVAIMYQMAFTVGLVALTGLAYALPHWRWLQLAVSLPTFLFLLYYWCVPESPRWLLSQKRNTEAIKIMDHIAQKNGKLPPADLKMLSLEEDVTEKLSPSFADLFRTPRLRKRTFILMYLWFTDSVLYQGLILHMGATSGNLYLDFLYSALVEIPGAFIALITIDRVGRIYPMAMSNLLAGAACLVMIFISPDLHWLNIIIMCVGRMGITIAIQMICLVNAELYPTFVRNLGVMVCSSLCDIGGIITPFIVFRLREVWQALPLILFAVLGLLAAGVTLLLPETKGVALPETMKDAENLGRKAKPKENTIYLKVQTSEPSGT
# Procedure: ASP^+ is an organic cationic mitochondrial dye that only fluoresces inside cells so that fluorescence measured in the cell culture medium can be neglected. […] In parallel, cells were incubated with Qu (100 µM) and TEA (3 mM) as mentioned in Section 4.3. After 24 h, cells were incubated with 1 µM ASP^+ in Hanks’ balanced salt solution (HBSS, Sigma-Aldrich, Taufkirchen, Germany) at 37 °C. Fluorescence was measured after 20 min at ASP^+-specific wavelength (λex = 475 nm and λem = 605 nm) on a TecanM200Pro spectrometer (Tecan Group Ltd., Männedorf, Switzerland) according to Ahlin et al., (2008).
# HepaRG cells [1] = assay: PA and PANO content in cell culture medium of HepaRG cells upon pharmacological transporter inhibition (LC-MS/MS); format: in vitro ADME, human
# Procedure: In the case of TEA, cells were pre-incubated 24 h prior to PA treatment. The inhibitors were applied anew at PA incubation.
# (§1) In order to measure time-dependent depletion of PA and PANO content in cell culture medium, cells were seeded at a density of 0.2 × 10^6 cells per well in a 6-well plate and cultivated as described in Section 4.2. After four weeks of cultivation, cells were adapted to serum-free medium and medium substituted with insulin, transferrin, selenium (ITS) serum extender (Capricorn Scientific, Ebsdorfergrund, Germany) 48 h prior to PA incubation for optimal LC-MS/MS measurements. […] Samples were taken after 2 h, 4 h, 8 h and 24 h.
# (§2) Briefly, chromatographic separation of PA/PANO analytes was achieved on a 50 × 2.1 mm Kinetex ™ 2.6 μm CoreShell EVO C18 100 Å column protected by a SecurityGuard ™ ULTRA EVO C 18 2.1 mm guard column (both Phenomenex, Aschaffenburg, Germany) at a flow rate of 0.4 mL/min on a Shimadzu high performance liquid chromatography (HPLC) apparatus (LC-20AB, SIL-20AC HT, CTO-20AC, CBM-20A, Duisburg, Germany) coupled to an API4000 triple quadrupole MS (Sciex, Darmstadt, Germany). The following MS parameters were used for measurements in positive electrospray ionisation (ESI+) mode: ionisation voltage 2500 V, nebuliser gas 50 psi, heating gas 50 psi, curtain gas 30 psi, temperature 600 °C, collision gas level 7. The substance specific parameters are summarized in Kaltner et al. 2019 [79].
# HepaRG cells [2] = assay: as above; format: in vitro ADME, human; remark: listed apart in the source
# HepaRG cells [3] = assay: Time-dependent PA depletion and PANO formation in cell culture medium of HepaRG cells at 37 °C and 4 °C (LC-MS/MS)
# Procedure: as §1, §2
smiles,measurement,setting,value
"C/C=C1/C[C@@H](C)[C@@](C)(O)C(=O)OCC2=CCN3CC[C@@H](OC1=O)[C@@H]23 [Senecionine, senecionine]","fluorescence [%], MW [%]","SLC22A1; 1 µM, solv ctrl = 100",90.9095%
same,"fluorescence [%], MW [%]","SLC22A1; 10 µM, solv ctrl = 100",39.1097%
same,"fluorescence [%], MW [%]","SLC22A1; 50 µM, solv ctrl = 100",27.2215%
same,"fluorescence [%], MW [%]","SLC22A1; 100 µM, solv ctrl = 100",21.3927%
same,"fluorescence [%], MW [%]","SLC22A1; 250 µM, solv ctrl = 100",20.0876%
same,interaction with SLC22A1,SLC22A1; HepaRG,both inhibitors and substrates
same,minimum concentration inhibiting uptake of the SLC22A1-specific substrate ASP+,"SLC22A1; HepaRG, 24 h",10 µM
same,remaining activity at 1 µM,"SLC22A1; HepaRG, 24 h, 1 µM, solv ctrl = 100, read-out: fluorescence [%], single replicates (repl.)",82%
same,"PA content in medium, single replicates","HepaRG cells [1]; 8h, no inhibitor, repl. 1-5",8.726%
same,"PA content in medium, single replicates","HepaRG cells [1]; 8h, plus Ko143, repl. 1-3",4.478% and 4.105%
same,"PA in medium, Mean [%]","HepaRG cells [1]; no inhibitor, 0h",100%
same,"PA in medium, Mean [%]","HepaRG cells [1]; no inhibitor, 4h",25.6172%
same,"PA in medium, single replicates (repl.)","HepaRG cells [1]; no inhibitor, 4h",20.2703% and 36.4212% and 41.9726% and 18.235% and 11.1867%
same,"PA in medium, Mean [%]","HepaRG cells [1]; no inhibitor, 8h",8.337%
same,"PA in medium, single replicates (repl.)","HepaRG cells [1]; no inhibitor, 8h",5.95% and 13.0309% and 15.415% and 3.983% and 3.308%
same,"PA in medium, Mean [%]","HepaRG cells [1]; no inhibitor, 24h",0.1453%
same,"PA in medium, single replicates (repl.)","HepaRG cells [1]; no inhibitor, 24h",0% (3×) and 0.3901% and 0.3363%
same,"PA in medium, Mean [%]","HepaRG cells [1]; plus CsA, 0h",100%
same,"PA in medium, single replicates (repl.)","HepaRG cells [1]; plus CsA, 0h",100%
same,"PA in medium, Mean [%]","HepaRG cells [1]; plus CsA, 4h",83.5787%
same,"PA in medium, single replicates (repl.)","HepaRG cells [1]; plus CsA, 4h",100.41% and 74.0814%
same,"PA in medium, Mean [%]","HepaRG cells [1]; plus CsA, 8h",79.3329%
same,"PA in medium, single replicates (repl.)","HepaRG cells [1]; plus CsA, 8h",78.1367% and 71.9298%
same,"PA in medium, Mean [%]","HepaRG cells [1]; plus CsA, 24h",63.0445%
same,"PA in medium, single replicates (repl.)","HepaRG cells [1]; plus CsA, 24h",81.6295% and 67.7648% and 39.7392%
same,"PA in medium, Mean [%]","HepaRG cells [1]; plus Ko143, 0h",100%
same,"PA in medium, single replicates (repl.)","HepaRG cells [1]; plus Ko143, 0h",100%
same,"PA in medium, Mean [%]","HepaRG cells [1]; plus Ko143, 4h",27.3505%
same,"PA in medium, single replicates (repl.)","HepaRG cells [1]; plus Ko143, 4h",21.9905% and 15.6142% and 44.4468%
same,"PA in medium, Mean [%]","HepaRG cells [1]; plus Ko143, 8h",9.179%
same,"PA in medium, single replicates (repl.)","HepaRG cells [1]; plus Ko143, 8h",5.449% and 3.069% and 19.0198%
same,"PA in medium, Mean [%]","HepaRG cells [1]; plus Ko143, 24h",0.2576%
same,"PA in medium, single replicates (repl.)","HepaRG cells [1]; plus Ko143, 24h",0% (2×) and 0.7727%
same,"PA in medium, Mean [%]","HepaRG cells [1]; plus MK-571, 0h",100%
same,"PA in medium, Mean [%]","HepaRG cells [1]; plus MK-571, 4h",87.0627%
same,"PA in medium, single replicates (repl.)","HepaRG cells [1]; plus MK-571, 4h",81.9366% and 96.8826% and 82.369%
same,"PA in medium, Mean [%]","HepaRG cells [1]; plus MK-571, 8h",64.688%
same,"PA in medium, single replicates (repl.)","HepaRG cells [1]; plus MK-571, 8h",76.7573% and 68.0778% and 49.229%
same,"PA in medium, Mean [%]","HepaRG cells [1]; plus MK-571, 24h",22.3298%
same,"PA in medium, single replicates (repl.)","HepaRG cells [1]; plus MK-571, 24h",51.6203% and 9.723% and 5.646%
same,"PA in medium, Mean [%]","HepaRG cells [1]; plus Qu, 0h",100%
same,"PA in medium, single replicates (repl.)","HepaRG cells [1]; plus Qu, 0h",100%
same,"PA in medium, single replicates (repl.)","HepaRG cells [1]; plus Qu, 4h",89.6889% and 96.62%
same,"PA in medium, single replicates (repl.)","HepaRG cells [1]; plus Qu, 8h",89.9877% and 75.5125% and 84.2%
same,"PA in medium, single replicates (repl.)","HepaRG cells [1]; plus Qu, 24h",67.9609% and 61.3936% and 73.11%
same,"PA in medium, Mean [%]","HepaRG cells [1]; plus TEA, 0h",100%
same,"PA in medium, single replicates (repl.)","HepaRG cells [1]; plus TEA, 0h",100%
same,"PA in medium, Mean [%]","HepaRG cells [1]; plus TEA, 4h",61.4268%
same,"PA in medium, single replicates (repl.)","HepaRG cells [1]; plus TEA, 4h",53.1634% and 46.1792% and 84.938%
same,"PA in medium, Mean [%]","HepaRG cells [1]; plus TEA, 8h",43.7039%
same,"PA in medium, single replicates (repl.)","HepaRG cells [1]; plus TEA, 8h",34.8001% and 27.837%
same,"PA in medium, Mean [%]","HepaRG cells [1]; plus TEA, 24h",19.1005%
same,"PA in medium, single replicates (repl.)","HepaRG cells [1]; plus TEA, 24h",7.953% and 7.514% and 41.8346%
same,"PA in medium, single replicates (repl.)","HepaRG cells [2]; no inhibitor, 0h",100%
same,"PA in medium, single replicates (repl.)","HepaRG cells [2]; plus MK-571, 0h",100%
same,reduction of PA content in the supernatant,HepaRG cells [3],highest decline
same,uptake and toxicity (grading),HepaRG cells [3],strong
same,"PANO in medium, Mean [%]",HepaRG cells [3]; human,0%
same,"PANO in medium, single replicates (repl.)",HepaRG cells [3]; human,0%
